Two molecules from US8088801B2, “Aryloazol-2-yl cyanoethylamino compounds, method of making and method of using thereof” (Merial Limited, priority 2007, dated 2012) can be followed below.

In assay [1] the test system is Haemonchus contortus. The assay is described as follows: Method A: screening against Haemonchus contortus, L1 larvae in microtitre plate. The conditions noted are these: 96 h, test concentration 0.0025 ppm, 4 days assessment, read-out: motility inhibition. The text has this: Method A: Screening Method to Test Activity of Compounds Against Haemonchus contortus.
The subject of assay [2] is Haemonchus contortus. The experiment in a line: Method B: Haemonchus contortus in vivo in Mongolian gerbil, oral gavage. Also noted: species or system Mongolian gerbil (Meriones unguiculatus). The conditions noted are these: 72 h, Mongolian gerbils, read-out: reduction in nematode infestation. The procedure:
Method B: Screening Method to Test Activity of Compounds Against Haemonchus contortus In Vivo in Mongolian Gerbil (Meriones unguiculatus).
Mongolian gerbils, at least five weeks old, were immunosuppressed and artificially infected with ca. 1000 ensheathed Haemonchus contortus third instar larvae. Six days after infection, the Mongolian gerbils were treated by oral gavage with the test compounds, dissolved in a mixture of 2 parts DMSO and 1 part polyethylene glycol (PEG400), at doses of 100 mg/kg and dissolved in pure polyethylene glycol (PEG400) at doses of 10 and 1 mg/kg. Jirds treated only with the placebo (2 parts DMSO and 1 part PEG400 or pure PEG400) served as controls. On day 9 (3 days after treatment) the jirds were euthanized and necropsied for recovery of parasites from the stomach. Efficacy was calculated as the average % reduction in the number of worms in each test group compared with the average number of worms from the control group. […] Compound numbers 1.001, 1.008, 1.012, 1.013 and 1.014 provided at least 95% reduction in nematode infestation in Mongolian gerbils treated by oral gavage with test article at a dose of 100 mg/kg. Compound numbers 1.012, 1.033, 1.064, 2.008, 2.037, 2.038, 2.040, 2.041, 3.001 provided at least 95% reduction in nematode infestation at a dose of 10 mg/kg. Compound numbers 1.094, 2.048, 3.001, 3.007 and 3.009, provided at least 95% reduction in nematode infestation at a dose of 1 mg/kg. Compound numbers 3.005, 3.006, 3.011, 3.012, 3.017 and 3.019, provided at least 95% reduction in nematode infestation at a dose of 0.5 mg/kg.

Assay [3] has as its system Trichostrongylus colubriformis. The experiment in a line: Method D: screening against Trichostrongylus colubriformis, L1 larvae in microtitre plate. The following applies: 96 h, test concentration 0.0025 ppm, 4 days assessment, read-out: motility inhibition. On the procedure:
Method D: Screening Method to Test Activity of Compounds Against Trichostrongylus colubriformis.
Twenty L1 Trichostrongylus colubriformis larvae were added to wells of a microtitre plate containing a nutrient medium and the test compound in DMSO. The microtitre plate was then held at 27° C. where the L1 larvae were allowed to develop. An analysis was conducted at 4 days to determine successful development to the L3 stage. Larvae exposed to DMSO and no test compound served as controls. Compounds numbers 1.008, 1.014, 1.042, 1.047, 1.048, 1.073, 2.001, 2.003 and 2.020, gave at least 90% motility inhibition at a test concentration of 0.15 ppm at the 4 days assessment. Compounds numbers 1.001, 1.003, 1.007, 1.011, 1.037, 1.038, 1.043, 1.056, 1.066, 1.070, 1.071, 2.012 and 2.016, gave at least 90% motility inhibition at a test concentration of 0.04 ppm at the 4 days assessment. Compounds numbers 1.012, 1.020, 1.021, 1.033, 1.034, 1.039, 1.064, 1.065, 2.008, 2.009 and 3.005 gave at least 90% motility inhibition at a test concentration of 0.01 ppm at the 4 days assessment. Compounds numbers 1.094, 2.040, 2.048, 2.049, 3.006, 3.009, 3.011 and 3.012 gave at least 90% motility inhibition at a test concentration of 0.0025 ppm at the 4 days assessment.

Assay [4] deals with Microfilaria of Dirofilaria immitis. The experiment in a line: Method F: microfilaria of Dirofilaria immitis in microtitre plate. The conditions noted are these: test concentration 50 ppm, assessment at 24 hours, read-out: motility inhibition. On the procedure: Method F: Screening Method to Test Activity of Compounds Against Microfilaria of Dirofilaria immitis.
Four hundred to six hundred microfilaria of Dirofilaria immitis were added to wells of a microtitre plate containing buffer and the test compound in DMSO. The microtitre plate was then held at 37° C. in an environment containing 5% CO2. An assessment was conducted at 24 hours to determine survival of the microfilaria. Microfilaria exposed to DMSO and no test compound served as controls. Compounds numbers 1.003, 1.012, 1.013, 1.064, 1.086, 1.087, 1.090, 1.094, 2.043, 2.046, 2.047, 2.048, 2.049, 3.005, 3.006, 3.009, 3.011, 3.012, 3.017, 3.019 and 3.023 gave at least 90% motility inhibition at a test concentration of 50 ppm.

For orientation: inhibition means the change of the read-out against control, counted positive when it falls. With `Cc1c(Br)cnc2cn(CC(C)(C#N)NC(=O)c3ccc(OC(F)(F)F)cc3)nc12` (centres unmarked) [Compound 3.009, N-[2-(6-Bromo-7-methyl-2H-pyrazolo[4,3-b]pyridin-2-yl)-1-cyano-1-methylethyl]-4-trifluoromethoxybenzamide], the inhibition at 0.0025 ppm (in the assay with Haemonchus contortus [1]; in assay [3]) was ≥ 90% throughout. Also, the inhibition in vivo at 1 mg/kg with Haemonchus contortus [2] (dose 1 mg/kg) was ≥ 95%. Further, the inhibition at 50 ppm in assay [4] was ≥ 90%.

`CC(C#N)(Cn1cc2ncc(Br)cc2n1)NC(=O)c1ccc(OC(F)(F)F)cc1` (centres unmarked) [Compound 3.011, N-[2-(6-Bromo-2H-pyrazolo[4,3-b]pyridin-2-yl)-1-cyano-1-methylethyl]-4-trifluoromethoxybenzamide]: the inhibition at 0.0025 ppm (in the assay on Haemonchus contortus [1]; in assay [3]) was ≥ 90% throughout. In addition, the inhibition in vivo at 0.5 mg/kg in the assay on Haemonchus contortus [2] (dose 0.5 mg/kg) is ≥ 95%. For the same molecule, in assay [4], the inhibition at 50 ppm is ≥ 90%.
